Converted amounts (≈) assume the structure as drawn. Read-outs that look alike come from different tables or passages of the source.
Key:
Assay in all cases: MIC (minimum inhibitory concentration)
Format in all cases: cell-based
[1] = tested on: Staphylococcus epidermidis sp-al-1; details: SPAL1
[2] = tested on: Staphylococcus aureus ATCC 6538P; details: ATCC6538P
[3] = tested on: Staphylococcus aureus MS353 A0*; details: * clinical isolate, macrolide-resistant bacteria A group
[4] = tested on: Micrococcus flavus ATCC 10240; details: ATCC10240
[5] = tested on: Klebsiella pneumoniae ATCC 10031; details: ATCC10031
[6] = tested on: Salmonella enteritidis Gaertner; details: Salmonella enterica
Escherichia coli B = tested on: Escherichia coli B
[7] = tested on: Pseudomonas aeruginosa IAM 1095; details: IAM1095
Shigella sonnei E33 = tested on: Shigella sonnei E33
[8] = tested on: Escherichia coli NIHJ-JC2; details: NIHJJC2
[9] = tested on: Staphylococcus aureus MS353 C36; details: MS353C36
Salmonella typhosa H901 = details: Salmonella enterica
[10] = tested on: Staphylococcus aureus 0119*; details: Staphylococcus aureus
[11] = tested on: Streptococcus pyogenes N.Y.5
[12] = tested on: Staphylococcus aureus 0127*; details: Staphylococcus aureus
Sarcina lutea ATCC 9341 = details: Micrococcus luteus, ATCC9341
Serratia marcescens = tested on: Serratia marcescens
[13] = tested on: Shigella flexineri type 3a; details: TYPE3A
[14] = tested on: Streptococcus pyogenes 1022*
Proteus vulgaris OX19 = tested on: Proteus vulgaris OX19
[15] = tested on: Streptococcus agalaactiae 1020
[16] = tested on: Streptococcus faecalis 1501; details: Enterococcus faecalis
[17] = tested on: Staphylococcus aureus MS353
[18] = tested on: Bacillus subtilis ATCC 6633; details: ATCC6633
[19] = tested on: Corynebacterium diphtheriae P.Y.8
[20] = Staphylococcus epidermidis sp-al-1, read-out: MIC
[21] = Micrococcus flavus ATCC 10240, read-out: MIC
[22] = Klebsiella pneumoniae ATCC 10031, read-out: MIC
[23] = Salmonella enteritidis Gaertner, read-out: MIC
[24] = Escherichia coli B, read-out: MIC
[25] = Pseudomonas aeruginosa IAM 1095, read-out: MIC
[26] = Escherichia coli NIHJ-JC2, read-out: MIC
[27] = Sarcina lutea ATCC 9341, read-out: MIC
[28] = Streptococcus agalaactiae 1020, read-out: MIC
[29] = Streptococcus faecalis 1501, read-out: MIC
[30] = Bacillus subtilis ATCC 6633, read-out: MIC

**Q.** `CCC1OC(=O)CC(OC(=O)c2ccccc2)C(C)C(OC2OC(C)C(O)C(N(C)C)C2O)C(CC=O)CC(C)C(=O)C=CC(C)=CC1COC1OC(C)CC(OC)C1OC` (stereo not drawn) [Example 5, 3-O-benzoyl-4"-deoxydesmycosin] was tested. Which MIC [1, 20] did it give?
**A.** The MIC was 0.1 mg/L (≈ 0.116 µM).

**Q.** And the MIC [2]?
**A.** Its MIC is 0.2 mg/L (≈ 0.233 µM).

**Q.** What about the MIC [3] of the same compound?
**A.** Its MIC is 50 mg/L (≈ 58.1 µM).

**Q.** And the MIC [4, 21]?
**A.** Its MIC is ≤ 0.05 mg/L.

**Q.** What about the MIC [5, 22] of the same compound?
**A.** The MIC was 25 mg/L (≈ 29.1 µM).

**Q.** And the MIC [6, 23]?
**A.** Its MIC is > 100 mg/L.

**Q.** And the MIC (Escherichia coli B; [24])?
**A.** The MIC was > 100 mg/L.

**Q.** And the MIC [7, 25]?
**A.** Its MIC is > 100 mg/L.

**Q.** What about the MIC (Shigella sonnei E33) of the same compound?
**A.** Its MIC is > 100 mg/L.

**Q.** What about the MIC [8, 26] of the same compound?
**A.** Its MIC is > 100 mg/L.

**Q.** What about the MIC [9] of the same compound?
**A.** Its MIC is 0.2 mg/L (≈ 0.233 µM).

**Q.** And the MIC (Salmonella typhosa H901; TYPHOSA)?
**A.** Its MIC is > 100 mg/L.

**Q.** What about the MIC [10] of the same compound?
**A.** The MIC was > 100 mg/L.

**Q.** And the MIC [11]?
**A.** Its MIC is ≤ 0.05 mg/L.

**Q.** What about the MIC [12] of the same compound?
**A.** Its MIC is > 100 mg/L.

**Q.** And the MIC (Sarcina lutea ATCC 9341; [27])?
**A.** Its MIC is ≤ 0.05 mg/L.

**Q.** What about the MIC (Serratia marcescens; read-out: MIC) of the same compound?
**A.** The MIC was > 100 mg/L.

**Q.** What about the MIC [13] of the same compound?
**A.** The MIC was 100 mg/L (≈ 116 µM).

**Q.** What about the MIC ([14]; Streptococcus pyogenes 1022, * clinical isolate, macrolide-resistant bacteria A group, read-out: MIC) of the same compound?
**A.** The MIC was 25 mg/L (≈ 29.1 µM).

**Q.** What about the MIC (Proteus vulgaris OX19; read-out: MIC) of the same compound?
**A.** Its MIC is 50 mg/L (≈ 58.1 µM).

**Q.** What about the MIC [15, 28] of the same compound?
**A.** Its MIC is 0.2 mg/L (≈ 0.233 µM).

**Q.** And the MIC [16, 29]?
**A.** Its MIC is 1.6 mg/L (≈ 1.86 µM).

**Q.** And the MIC [17]?
**A.** The MIC was 0.2 mg/L (≈ 0.233 µM).

**Q.** What about the MIC [18, 30] of the same compound?
**A.** Its MIC is 0.1 mg/L (≈ 0.116 µM).

**Q.** `CCC1OC(=O)CC(OC(=O)Cc2ccccc2)C(C)C(OC2OC(C)C(O)C(N(C)C)C2O)C(CC=O)CC(C)C(=O)C=CC(C)=CC1COC1OC(C)CC(OC)C1OC` (stereo not drawn) [Example 6, 3-O-phenylacetyl-4"-deoxydesmycosin] was tested. Which MIC ([1]; Staphylococcus epidermidis) did it give?
**A.** The MIC was ≤ 0.05 mg/L.

**Q.** What about the MIC [2] of the same compound?
**A.** The MIC was 0.1 mg/L (≈ 0.114 µM).

**Q.** And the MIC [3]?
**A.** The MIC was > 100 mg/L.

**Q.** And the MIC ([4]; Micrococcus flavus)?
**A.** Its MIC is ≤ 0.05 mg/L.

**Q.** And the MIC ([5]; Klebsiella pneumoniae)?
**A.** Its MIC is 25 mg/L (≈ 28.6 µM).

**Q.** What about the MIC ([6]; ENTERITIDIS) of the same compound?
**A.** Its MIC is > 100 mg/L.

**Q.** And the MIC (Escherichia coli B; Escherichia coli)?
**A.** The MIC was > 100 mg/L.

**Q.** And the MIC ([7]; Pseudomonas aeruginosa)?
**A.** The MIC was > 100 mg/L.

**Q.** What about the MIC (Shigella sonnei E33) of the same compound?
**A.** Its MIC is > 100 mg/L.

**Q.** And the MIC ([8]; Escherichia coli)?
**A.** Its MIC is > 100 mg/L.

**Q.** What about the MIC [9] of the same compound?
**A.** The MIC was 0.1 mg/L (≈ 0.114 µM).

**Q.** What about the MIC (Salmonella typhosa H901; Salmonella typhosa H901, read-out: MIC) of the same compound?
**A.** Its MIC is > 100 mg/L.

**Q.** What about the MIC [10] of the same compound?
**A.** The MIC was > 100 mg/L.

**Q.** What about the MIC [11] of the same compound?
**A.** Its MIC is 0.1 mg/L (≈ 0.114 µM).

**Q.** And the MIC [12]?
**A.** Its MIC is > 100 mg/L.

**Q.** And the MIC (Sarcina lutea ATCC 9341)?
**A.** The MIC was ≤ 0.05 mg/L.

**Q.** And the MIC [19]?
**A.** The MIC was ≤ 0.05 mg/L.

**Q.** And the MIC (Serratia marcescens)?
**A.** Its MIC is > 100 mg/L.

**Q.** And the MIC [13]?
**A.** Its MIC is 50 mg/L (≈ 57.2 µM).

**Q.** And the MIC (Proteus vulgaris OX19)?
**A.** Its MIC is 50 mg/L (≈ 57.2 µM).

**Q.** What about the MIC ([15]; Streptococcus, 1020) of the same compound?
**A.** Its MIC is 0.1 mg/L (≈ 0.114 µM).

**Q.** What about the MIC [16]; 1501 of the same compound?
**A.** The MIC was 0.4 mg/L (≈ 0.458 µM).

**Q.** What about the MIC [17] of the same compound?
**A.** Its MIC is 0.2 mg/L (≈ 0.229 µM).

**Q.** What about the MIC ([18]; Bacillus subtilis) of the same compound?
**A.** The MIC was 0.1 mg/L (≈ 0.114 µM).

**Q.** With `CCC1OC(=O)CC(OC(=O)c2ccccc2)C(C)C(OC2OC(C)C(O)C(N(C)C)C2O)C(C)CC(C)C(=O)C=CC(C)=CC1COC1OC(C)CC(OC)C1OC` (stereo not drawn) [Example 9, 3-O-benzoyl-19-deformyl-4"-deoxydesmycosin] as the compound, how does the MIC [1, 20] read?
**A.** The MIC was ≤ 0.05 mg/L.

**Q.** What about the MIC [2] of the same compound?
**A.** Its MIC is 0.2 mg/L (≈ 0.24 µM).

**Q.** And the MIC [3]?
**A.** Its MIC is > 100 mg/L.

**Q.** And the MIC [4, 21]?
**A.** The MIC was ≤ 0.05 mg/L.

**Q.** What about the MIC [5, 22] of the same compound?
**A.** Its MIC is 25 mg/L (≈ 30 µM).

**Q.** What about the MIC [6, 23] of the same compound?
**A.** Its MIC is > 100 mg/L.

**Q.** And the MIC (Escherichia coli B; [24])?
**A.** The MIC was > 100 mg/L.

**Q.** What about the MIC [7, 25] of the same compound?
**A.** The MIC was > 100 mg/L.

**Q.** And the MIC (Shigella sonnei E33)?
**A.** Its MIC is > 100 mg/L.

**Q.** What about the MIC [8, 26] of the same compound?
**A.** The MIC was > 100 mg/L.

**Q.** What about the MIC [9] of the same compound?
**A.** The MIC was 0.1 mg/L (≈ 0.12 µM).

**Q.** What about the MIC (Salmonella typhosa H901; TYPHOSA) of the same compound?
**A.** Its MIC is > 100 mg/L.

**Q.** And the MIC [10]?
**A.** The MIC was > 100 mg/L.

**Q.** What about the MIC [11] of the same compound?
**A.** Its MIC is ≤ 0.05 mg/L.

**Q.** And the MIC [12]?
**A.** Its MIC is > 100 mg/L.

**Q.** And the MIC (Sarcina lutea ATCC 9341; [27])?
**A.** Its MIC is ≤ 0.05 mg/L.

**Q.** What about the MIC (Serratia marcescens; read-out: MIC) of the same compound?
**A.** Its MIC is > 100 mg/L.

**Q.** And the MIC [13]?
**A.** Its MIC is > 100 mg/L.

**Q.** And the MIC ([14]; Streptococcus pyogenes)?
**A.** The MIC was > 100 mg/L.

**Q.** What about the MIC (Proteus vulgaris OX19; read-out: MIC) of the same compound?
**A.** Its MIC is 100 mg/L (≈ 120 µM).

**Q.** What about the MIC [15, 28] of the same compound?
**A.** Its MIC is 0.2 mg/L (≈ 0.24 µM).

**Q.** And the MIC [16, 29]?
**A.** Its MIC is 1.6 mg/L (≈ 1.92 µM).

**Q.** And the MIC [17]?
**A.** Its MIC is 0.2 mg/L (≈ 0.24 µM).

**Q.** What about the MIC [18, 30] of the same compound?
**A.** The MIC was 0.2 mg/L (≈ 0.24 µM).

**Q.** What does the source list for `CCC1OC(=O)CC(OC(C)=O)C(C)C(OC2OC(C)C(O)C(N(C)C)C2O)C(C)CC(C)C(=O)C=CC(C)=CC1COC1OC(C)CC(OC)C1OC` (stereo not drawn) [Example 7, 3-O-acetyl-19-deformyl-4"-deoxydesmycosin]?
**A.** MIC [1, 20]: 0.1 mg/L (≈ 0.13 µM); MIC [2]: 0.4 mg/L (≈ 0.52 µM); MIC [3]: > 100 mg/L; MIC [4, 21]: ≤ 0.05 mg/L; MIC [5, 22]: 25 mg/L (≈ 32.5 µM); MIC [6, 23]: > 100 mg/L; MIC (Escherichia coli B; [24]): > 100 mg/L; MIC [7, 25]: > 100 mg/L; MIC (Shigella sonnei E33): > 100 mg/L; MIC [8, 26]: > 100 mg/L; MIC [9]: 0.2 mg/L (≈ 0.26 µM); MIC (Salmonella typhosa H901; TYPHOSA): > 100 mg/L; MIC [10]: > 100 mg/L; MIC [11]: 0.1 mg/L (≈ 0.13 µM); MIC [12]: > 100 mg/L; MIC (Sarcina lutea ATCC 9341; [27]): ≤ 0.05 mg/L; MIC (Serratia marcescens; read-out: MIC): > 100 mg/L; MIC [13]: > 100 mg/L; MIC ([14]; Streptococcus pyogenes): > 100 mg/L; MIC (Proteus vulgaris OX19; read-out: MIC): 100 mg/L (≈ 130 µM); MIC [15, 28]: 0.8 mg/L (≈ 1.04 µM); MIC [16, 29]: 3.1 mg/L (≈ 4.03 µM); MIC [17]: 0.2 mg/L (≈ 0.26 µM); MIC [18, 30]: 0.1 mg/L (≈ 0.13 µM)

— patent US4652638A, “3-O-acyl-4"-deoxydesmycosin derivatives” (Toyo Jozo Kabushiki Kaisha, priority 1983, dated 1987)
